Source: patent publication US9102648B1, “Bioavailable diacylhydrazine ligands for modulating the expression of exogenous genes via an ecdysone receptor complex” (Intrexon Corporation, priority 2003, dated 2015)

Assays:
[1] = molecular target: GAL4 DBD (1-147)-CfEcR(DEF)/VP16AD-βRXREF-LmUSPEF (Choristoneura fumiferana, UniProt O77240); test: cell-based; conditions: for Fold Induction, 27-63 Assay, 3.3 uM: 3.3 uM ligand; for Fold Induction, 27-63 Assay, 3.3 uM / Fold Induction, 27-63 Assay, 33 uM: RLU ligand treated / RLU DMSO treated cells; for Fold Induction, 27-63 Assay, 3.3 uM / Fold Induction, 27-63 Assay, 33 uM / EC50: average of two wells; for Fold Induction, 27-63 Assay, 33 uM: 33 uM ligand; for 27-63 assay Rel Max FI: maximum fold induction at any concentration relative to that of GS-E ligand, CHO 27-63 cells; for EC50: read-out: 27-63 assay EC50, CHO 27-63 stable cell line, luciferase reporter
Text: GAL4 DBD (1-147)-CfEcR(DEF)/VP16AD-βRXREF-LmUSPEF:
The wild-type D, E, and F domains from spruce budworm Choristoneura fumiferana EcR (“CfEcR-DEF”; SEQ ID NO: 1) were fused to a GAL4 DNA binding domain (“Gal4DBD1-147”; SEQ ID NO: 2) and placed under the control of a phosphoglycerate kinase promoter (“PGK”; SEQ ID NO: 3). Helices 1 through 8 of the EF domains from Homo sapiens RXRβ (“HsRXRβ-EF”; nucleotides 1-465 of SEQ ID NO: 4) and helices 9 through 12 of the EF domains of Locusta migratoria Ultraspiracle Protein (“LmUSP-EF”; nucleotides 403-630 of SEQ ID NO: 5) were fused to the transactivation domain from VP16 (“VP16AD”; SEQ ID NO: 6) and placed under the control of an elongation factor-1α promoter (“EF-1α”; SEQ ID NO: 7). Five consensus GAL4 response element binding sites (“5XGAL4RE”; comprising 5 copies of a GAL4RE comprising SEQ ID NO: 8) were fused to a synthetic TATA minimal promoter (SEQ ID NO: 9) and placed upstream of the luciferase reporter gene (SEQ ID NO: 10).
CHO cells were transiently transfected with transcription cassettes for GAL4 DBD (1-147) CJEcR(DEF) and for VP16AD βRXREF-LmUSPEF controlled by ubiquitously active cellular promoters (PGK and EF-la, respectively) on a single plasmid. Stably transfected cells were selected by Zeocin resistance. Individually isolated CHO cell clones were transiently transfected with a GAL4 RE-luciferase reporter (pFR Luc). 27-63 clone was selected using Hygromycin.
Cells were trypsinized and diluted to a concentration of 2.5×10^4 cells mL. 100 μL of cell suspension was placed in each well of a 96 well plate and incubated at 37° C. under 5% CO2 for 24 h. Ligand stock solutions were prepared in DMSO and diluted 300 fold for all treatments. Dose response testing consisted of 8 concentrations ranging from […] to 0.01 μM.
Luciferase reporter gene expression was measured 48 h after cell treatment using Bright-Glo™ Luciferase Assay System from Promega (E2650). Luminescence was detected at room temperature using a Dynex MLX microtiter plate luminometer.
(§1) Each assay was conducted in two separate wells, and the two values were averaged. Fold inductions were calculated by dividing relative light units (“RLU”) in ligand treated cells with RLU in DMSO treated cells. EC50s were calculated from dose response data using a three-parameter logistic model.

[2] = molecular target: T1, Bombyx mori EcR (VP16 fusion, CVBE switch construct) (Bombyx mori, UniProt P49881); test: Z3 Assay (HEK-293 cells with CVBE and 6XEcRE LacZ, β-galactosidase reporter); conditions: for Fold Induction, Z3 Assay, 3.3 uM: 3.3 uM ligand; for Fold Induction, Z3 Assay, 3.3 uM / Fold Induction, Z3 Assay, 33 uM: ligand treated / DMSO treated cells; for Fold Induction, Z3 Assay, 3.3 uM / EC50 / Fold Induction, Z3 Assay, 33 uM: average of two wells; for Z3 assay Rel Max FI: maximum fold induction at any concentration relative to that of GS-E ligand; for Z3 assay Rel Max FI / EC50: HEK-293 Z3 cells; for EC50: read-out: Z3 assay EC50, β-galactosidase reporter; for Fold Induction, Z3 Assay, 33 uM: 33 uM ligand
T1 sequence (P49881 86-606): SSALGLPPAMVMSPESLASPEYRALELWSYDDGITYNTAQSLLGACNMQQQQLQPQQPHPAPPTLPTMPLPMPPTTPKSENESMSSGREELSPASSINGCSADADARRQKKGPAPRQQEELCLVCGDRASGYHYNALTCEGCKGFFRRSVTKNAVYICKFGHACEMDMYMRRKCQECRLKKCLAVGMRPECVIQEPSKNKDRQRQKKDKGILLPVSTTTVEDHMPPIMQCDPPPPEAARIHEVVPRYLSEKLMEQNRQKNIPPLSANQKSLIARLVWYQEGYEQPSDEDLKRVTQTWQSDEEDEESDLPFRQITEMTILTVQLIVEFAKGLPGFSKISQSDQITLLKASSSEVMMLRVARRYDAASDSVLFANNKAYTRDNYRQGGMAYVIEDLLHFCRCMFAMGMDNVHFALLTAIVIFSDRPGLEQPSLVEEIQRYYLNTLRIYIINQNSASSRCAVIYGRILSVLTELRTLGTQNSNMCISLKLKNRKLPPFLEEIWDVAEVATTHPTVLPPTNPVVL
T1 sequence (P19793 1-462 partner): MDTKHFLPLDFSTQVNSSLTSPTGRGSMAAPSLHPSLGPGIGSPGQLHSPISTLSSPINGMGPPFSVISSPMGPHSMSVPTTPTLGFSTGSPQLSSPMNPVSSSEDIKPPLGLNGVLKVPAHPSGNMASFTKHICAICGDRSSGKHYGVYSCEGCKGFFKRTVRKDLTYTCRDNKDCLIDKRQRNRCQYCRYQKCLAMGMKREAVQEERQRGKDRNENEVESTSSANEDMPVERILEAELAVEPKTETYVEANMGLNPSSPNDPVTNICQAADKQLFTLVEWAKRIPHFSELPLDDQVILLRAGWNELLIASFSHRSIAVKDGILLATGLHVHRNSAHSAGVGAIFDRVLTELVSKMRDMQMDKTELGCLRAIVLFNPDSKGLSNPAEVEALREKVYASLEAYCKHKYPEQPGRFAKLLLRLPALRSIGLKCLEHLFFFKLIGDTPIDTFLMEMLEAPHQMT
Text: Dr. F. Gage provided a population of stably transformed cells containing CVBE and 6XEcRE as described in Suhr, S. T., Gil, E. B., Senut M. C., Gage, F. H. (1998) Proc. Natl. Acad. Sci. USA 95, 7999-804. Human 293 kidney cells, also referred to as HEK-293 cells, were sequentially infected with retroviral vectors encoding first the switch construct CVBE, and subsequently the reporter construct 6XEcRE Lac Z. The switch construct contained the coding sequence for amino acids 26-546 from Bombyx mori EcR (BE) (Iatrou) inserted in frame and downstream of the VP16 transactivation domain (VBE). A synthetic ATG start codon was placed under the control of cytomegalovirus (CVBE) immediate early promoter and flanked by long terminal repeats (LTR). The reporter construct contained six copies of the ecdysone response element (EcRE) binding site placed upstream of LacZ and flanked on both sides with LTR sequences (6XEcRE).
Dilution cloning was used to isolate individual clones. Clones were selected using 450 ug/mL G418 and 100 ng/mL puromycin. Individual clones were evaluated based on their response in the presence and absence of test ligands.
Human 293 kidney cells stably transformed with CVBE and 6XEcRE LacZ were maintained in Minimum Essential Medium (Mediates, 10-010-CV) containing 10% FBS (Life Technologies, 26140-087), […] G418 (Mediates, 30-234-CR), and […] (Sigma, P-7255), at 37° C. in an atmosphere containing 5% CO2 and were subculture when they reached 75% confluence.
Z3 cells were seeded into 96-well tissue culture plates at a concentration of 2.5×10^3 cells per well and incubated at 37° C. in 5% CO2 for twenty-four hours. Stock solutions of ligands were prepared in DMSO. Ligand stock solutions were diluted 100 fold in media and 50 μL of this diluted ligand solution ([…]) was added to cells. The final concentration of DMSO was maintained at 0.03% in both controls and treatments.
Reporter gene expression was evaluated 48 hours after treatment of cells, β-galactosidase activity was measured using Gal Screen™ bioluminescent reporter gene assay system from Tropix (GSY1000). Fold induction activities were calculated by dividing relative light units (“RLU”) in ligand treated cells with RLU in DMSO treated cells. Luminescence was detected at room temperature using a Dynex MLX microtiter plate luminometer.
Flanking both constructs are long terminal repeats, G418 and puromycin are selectable markers, CMV is the cytomegalovirus promoter, VBE is coding sequence for amino acids 26-546 from Bombyx mori EcR inserted downstream of the VP16 transactivation domain, 6×EcRE is six copies of the ecdysone response element, lacZ encodes for the reporter enzyme β-galactosidase.
as §1

Structure (SMILES) | Fold Induction, Z3 Assay, 3.3 uM [2] | Z3 assay Rel Max FI [2] | EC50 [2] [nM] | other results
CCc1ccc(C(=O)NN(C(=O)c2cc(OC)c(C)c(OC)c2)C(c2ccccc2)C(C)(C)C)cc1 (racemic) [RG-115847] | – | – | – | Fold Induction, 27-63 Assay, 3.3 uM [1]: 2729; Fold Induction, 27-63 Assay, 33 uM [1]: 848; 27-63 assay Rel Max FI [1]: 1.120; EC50 [1]: 1100 nM
CCc1ccc(C(=O)NN(C(=O)c2cc(F)ccc2[N+](=O)[O-])C(C)(C)C)c(F)c1 [RG-115086] | 433 | 0.433 | 692 | –
CCc1c(OC)cccc1C(=O)NN(C(=O)c1cc2ccccc2n1C)C(C)(C)C [RG-115106, N′-2-Ethyl-3-methoxybenzoyl-N-t-butyl-N-(N-methylindole-2-carbonyl) hydrazide] | 68 | 0.457 | 2570 | –
CCc1ccc(C(=O)NN(C(=O)c2cc(C)nc(Cl)c2)C(C)(C)C)c(F)c1 [RG-115112] | 618 | 0.618 | 309 | –
CCc1ccc(C(=O)NN(C(=O)c2cc(Cl)nc(Cl)c2)C(C)(C)C)c(F)c1 [RG-115128] | 110 | 0.538 | 245 | –
CCc1ccc(C(=O)NN(C(=O)c2cccc([N+](=O)[O-])c2)C(C)(C)C)c(F)c1 [RG-115167] | 73 | 0.533 | 240 | –
Cc1cc(C)cc(C(=O)N(NC(=O)c2ccc3c(c2)OC(F)(F)O3)C(C)(C)C)c1 [RG-115256] | 647 | 0.527 | 692 | –
Cc1c(O)cccc1C(=O)NN(C(=O)c1cc(Cl)nc(Cl)c1)C(C)(C)C [RG-115261] | 31 | 0.498 | 29500 | –
CCc1ccc(C(=O)NN(C(=O)c2cccc(OC)c2)C(C)(C)C)c(F)c1 [RG-115269] | 112 | 0.552 | 437 | –
COCc1c(OC)cccc1C(=O)NN(C(=O)c1cc(Cl)cc(Cl)c1)C(C)(C)C [RG-115306] | 5 | 0.424 | 3470 | –
CC(C)(C)N(NC(=O)c1ccc2c(c1)OC(F)(F)O2)C(=O)c1ccccc1[N+](=O)[O-] [RG-115352] | 7 | 0.265 | 45700 | –
CCc1ccc(C(=O)NN(C(=O)c2ccccc2OC)C(C)(C)C)c(F)c1 [RG-115422] | 204 | 0.769 | 398 | –
COc1cc(C(=O)N(NC(=O)c2ccc3c(c2Cl)COCO3)C(C)(C)C)cc(OC)c1C [RG-115441] | 118 | 0.759 | 126 | –
CCc1c(OC)cccc1C(=O)NN(C(=O)c1cccc2c1OCO2)C(C)(C)C [RG-115496] | 874 | 0.878 | 1180 | –
COc1cc(C(=O)N(NC(=O)c2cccc(OC(C)=O)c2C)C(C)(C)C)cc(OC)c1C [RG-115557] | 426 | 0.566 | 1700 | –
CCc1c(C(=O)NN(C(=O)c2ccc(C)cc2)C(C)(C)C)ccc2c1OCOC2 [RG-115611] | 745 | 0.703 | 1580 | –
Cc1cc(C)cc(C(=O)N(NC(=O)c2ccc3cc[nH]c3c2)C(C)(C)C)c1 [RG-115689] | 13 | 0.411 | 100000 | –
CCc1c(OC)cccc1C(=O)NN(C(=O)c1ccc(C(=O)OC)cn1)C(C)(C)C [RG-115717] | – | – | – | Fold Induction, Z3 Assay, 33 uM [2]: 9
CCc1c(OC)cccc1C(=O)NN(C(=O)c1cc(C)n(-c2ccccc2)n1)C(C)(C)C [RG-115721] | – | – | – | Fold Induction, Z3 Assay, 33 uM [2]: 2
CCc1c(OC)cccc1C(=O)NN(C(=O)c1nn(C(c2ccccc2)(c2ccccc2)c2ccccc2)c2ccccc12)C(C)(C)C [RG-115722] | – | – | – | Fold Induction, Z3 Assay, 33 uM [2]: 1
CCc1c(OC)cccc1C(=O)NN(C(=O)c1n[nH]c2ccccc12)C(C)(C)C [RG-115723, 1H-Indazole-3-carboxylic acid N-tert-butyl-N′-(2-ethyl-3-methoxy-benzoyl)-hydrazide] | – | – | – | fold induction at 33 µM ([2]; HEK293, read-out: Fold Induction, Z3 Assay, 33 uM): 17
COc1cccc(C(=O)NN(C(=O)c2ccc(C(F)(F)F)nc2OC)C(C)(C)C)c1C [RG-115834] | – | – | – | Fold Induction, 27-63 Assay, 3.3 uM [1]: 1900; Fold Induction, 27-63 Assay, 33 uM [1]: 1837; 27-63 assay Rel Max FI [1]: 0.733; EC50 [1]: 1170 nM
